{
  "source": "patent US12616674B2",
  "about": "“Anti-fibrotic NEU3 inhibitor compounds and methods of use” (The Texas A&M University System, priority 2019, dated 2026)",
  "test_system": "bleomycin-induced pulmonary fibrosis, C57BL/6 mice",
  "assay": "Bleomycin-induced pulmonary fibrosis in mice",
  "format": "in vivo, mouse",
  "conditions": "for fibrosis-associated inflammation (BAL cell counts, CD11b, CD11c, CD45, Ly6G, Ly6C): daily i.p. from day 10, 1 mg/kg (2-acetyl pyridine, methyl picolinate) or 0.1 mg/kg (AMPCA), day 21, FIGS. 8A-F; for bleomycin-induced decrease in weights of mice / bleomycin-induced collagen deposition in the lungs (Sirius red staining): daily i.p. from day 10, 1 mg/kg (2AP, MP) or 0.1 mg/kg (AMPCA); for bleomycin-induced decrease in weights of mice: 21 days, FIGS. 11A-D; for bleomycin-induced collagen deposition in the lungs (Sirius red staining): day 21, FIGS. 9-10",
  "method": "To determine if selected compounds affect pulmonary fibrosis in mice, 8-10 week old 26-30 g male C57BL/6 mice (Jackson, Bar Harbor, ME) were given an oropharyngeal aspiration of 3 units/kg bleomycin (2246-10, 50, BioVision Incorporated, Milpitas, CA) in 50 μl of 0.9% saline to induce symptoms of pulmonary fibrosis or oropharyngeal saline as a control following Current protocols in mouse biology 2, 167-175, (2012). Starting 10 days after bleomycin had been administered, some of the bleomycin-treated mice were given daily intraperitoneal injections of 100 μl of PBS or 1 mg/kg 2-acetyl pyridine (sc-254121, Santa Cruz Biotechnology, Inc. Dallas, TX) or 1 mg/kg methyl picolinate (sc-228575, Santa Cruz Biotechnology, Inc.) or 0.1 mg/kg of 2-piperidinecarboxylic acid, 4-amino-1-methyl (A00285-13785-026, Sundia, Shanghai, China) in 100 μl PBS. At day 21, mice were sacrificed by CO2 inhalation, and bronchoalveolar lavage (BAL) fluid and cytospins of BAL cells were obtained as previously described in Current protocols in mouse biology 2, 167-175 (2012); Proceedings of the National Academy of Sciences of the United States of America 112, 11929-11934 (2015); Proceedings of the National Academy of Sciences of the United States of America 111, 18291-18296 (2014); Proceedings of the National Academy of Sciences of the United States of America 112, 8385-8390 (2015); and Public Library of Science ONE 9, e93730 (2014) (all hereby incorporated by reference). The total cells from cytospins were quantified as described previously in Current protocols in mouse biology 2, 167-175, (2012); and Public Library of Science ONE 9, e93730 (2014). The lungs were removed and inflated with Surgipath frozen section compound (3801480, Leica, Buffalo Grove, IL) and preserved at −80° C. 6-10 μm cryosections of lungs were placed on glass slides (48311-703, VWR). The experiment was performed in accordance with the recommendations in the Guide for the Care and Use of Laboratory Animals of the National Institutes of Health. The Texas A&M University Animal Use and Care Committee approved the protocol.\nCryosections were stained for collagen with 0.1% Sirius red (09400, Polysciences, Warrington, PA), in saturated picric acid (26853-07, Electron Microscopy Sciences, Hatfield, PA) for 15 minutes at room temperature. The sections were washed in 0.5% acetic acid in water (v/v) for 10 minutes with two washes at room temperature. After dehydrating the sections in ethanol, the sections were mounted in Permount mounting medium (17986-01, Electron Microscopy Sciences). The sections were imaged on a Nikon Microphot-FX (Nikon, Tokyo, Japan), and staining was quantified with ImageJ.\nImmunohistochemistry on BAL cytospins was performed as described previously in Public Library of Science ONE 9, e93730 (2014); Proceedings of the National Academy of Sciences of the United States of America 111, 18291-18296 (2014); and Proceedings of the National Academy of Sciences of the United States of America 112, 8385-8390 (2015) using anti-CD11b (101202, clone M1/70 BioLegend, San Diego, CA) to detect blood and inflammatory macrophages, anti-CD11c (M100-3, clone 223H7, MBL International, Woburn, MA) to detect alveolar macrophages and dendritic cells, anti-CD45 (103102, clone 30-F11, BioLegend) for total leukocytes, anti-Ly-6G (127602, clone 1A8, BioLegend) to detect neutrophils, and anti-Ly-6C (128001, clone HK1.4, BioLegend) to detect a variety of inflammatory immune system cells, and with isotype-matched irrelevant antibodies (BioLegend) as controls.",
  "data": [
    {"smiles": "CN1CCC(N)CC1C(=O)O", "note": "(stereo not drawn) [Compound 26, 2-piperidinecarboxylic acid, 4-amino-1-methyl]", "values": [
      {"measurement": "fibrosis-associated inflammation (BAL cell counts, CD11b, CD11c, CD45, Ly6G, Ly6C)", "result": "can reduce fibrosis-associated inflammation"},
      {"measurement": "bleomycin-induced decrease in weights of mice", "result": "attenuated"},
      {"measurement": "bleomycin-induced collagen deposition in the lungs (Sirius red staining)", "result": "reduced"}
    ]},
    {"smiles": "CC(=O)c1ccccn1", "note": "[Compound 5, 2-acetylpyridine]", "values": [
      {"measurement": "fibrosis-associated inflammation (BAL cell counts, CD11b, CD11c, CD45, Ly6G, Ly6C)", "result": "can reduce fibrosis-associated inflammation"},
      {"measurement": "bleomycin-induced decrease in weights of mice", "result": "attenuated"},
      {"measurement": "bleomycin-induced collagen deposition in the lungs (Sirius red staining)", "result": "reduced"}
    ]},
    {"smiles": "COC(=O)c1ccccn1", "note": "[Compound 6, methyl picolinate]", "values": [
      {"measurement": "fibrosis-associated inflammation (BAL cell counts, CD11b, CD11c, CD45, Ly6G, Ly6C)", "result": "can reduce fibrosis-associated inflammation"},
      {"measurement": "bleomycin-induced decrease in weights of mice", "result": "attenuated"},
      {"measurement": "bleomycin-induced collagen deposition in the lungs (Sirius red staining)", "result": "reduced"}
    ]}
  ]
}
